One compound from US5594009A, “Fused pyrrolocarbazoles” (priority 1995, dated 1997) can be followed below.

Test [1] concerns ChAT activity of basal forebrain cultures. In words: Basal Forebrain ChAT Activity Assay. Type of test: cell-based, rat. The procedure, abridged: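 Basal forebrain neurons from E17–18 rat embryos were Dispase-dissociated and plated at 5×10^4 cells/well on poly-ornithine/laminin. Cultures were kept in serum-free N2 medium with 0.05% BSA at 37° C. ChAT activity was measured 5 days after plating as the read-out for compound-induced increase.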

For test [2], the system named is indoleamine 2,3-dioxygenase (IDO) mRNA in THP-1 cells. Description: Inhibition of Induction By IFNγ of IDO mRNA. Type of test: cell-based. As to conditions: Homo sapiens, compound 400 nM, IFNγ 400 units/ml, IDO/GAPD mRNA ratio, 48 hours, read-out: IDO mRNA, Phosphorimager units, % of IFNγ-treated cells. The procedure:
Fused pyrrolocarbazoles in accordance with our invention were tested for their ability to inhibit the induction by IFNγ of indoleamine 2,3-dioxygenase (IDO) mRNA in THP-1 cells, a human monocyte cell line.
Cell Culture: THP-1 cells (American Type Culture Collection, Rockville, Md.), a human monocytic leukemia cell line, were grown in RPMI 1640 medium (Mediatech, Herndon Valley, Va.) with 50 μM 2-mercaptoethanol and 10% fetal bovine serum. Cells were plated in T75 culture flasks, at 4×10^4 cells/cm^2 in 10 ml of medium, and were immediately treated with fused pyrrolocarbazoles at various concentrations. After 30 minutes recombinant (E. coli) IFNγ (Boehringer Mannheim Corporation,Indianapolis, Ind.) was added at 200-400 units/ml. Cells were incubated (37° C., 5% CO2 /95% Air) for 48 hours after treatment.
RNA Isolation: Cells were pelleted by centrifugation (50× g, 7 min.) and medium was decanted. The cells were then washed two times with phosphate buffered saline pH 7.2 (PBS) (Mediatech, Herndon Valley, Va.). The washed cell pellet was lysed in 2 ml RNAzol B (Tel-Test, Inc., Friendswood, Tex.). RNA was isolated by chloroform extraction, precipitated, and washed following the "RNAzol B isolation of RNA" protocol accompanying this product. RNA was then solubilized in H2 O, and the concentration and purity were determined by reading the absorbance at A260 nm and A280 nm. Finally, the RNA was reprecipitated in ethanol, overnight at -20° C.
cDNA Probes: Indoleamine 2,3-dioxygenase (IDO) cDNA was received from Sohan L. Gupta, Ph. D. (Hipple Cancer Research Center, Dayton, Ohio) (see Da., W. & Gupta, S. L. 168 Biochem. Biophys. Res. Commun. 1, 1990 and Hassanain, H. H. et al. 268 J. Biol. Chem. 5077, 1993). Glyceraldehyde-3-phosphate dehydrogenase (GAPD) cDNA was obtained through American Type Culture Collection (Rockville, Md.). These cDNA's were produced and purified using standard methods (see, Sambrook, Fritsch, Maniatis (1989) Molecular Cloning a Laboratory Manual/Second Edition 1, 1.21-1.24, 1.74-1.81, hereinafter in this Example, "Maniatis a") using Qiagen plasmid purification kits (Qiagen Inc., Chatsworth, Calif.). DNA concentration and purity were determined by absorbance at 280 nm and 260 nm. Specific DNA inserts were cut out by standard methods using restriction enzymes, and subsequently separated on agarose gels as in Maniatis (see, Sambrook, Fritsch, Maniatis (1989) Molecular Cloning a Laboratory Manual/Second Edition 1, 6.9-6.15, hereinafter in this Example, "Maniatis b"). cDNA probes were further purified for [^32 P] labeling using the Geneclean II DNA purification kit (BIO 101, Inc., La Jolla, Calif.). Probes were labeled with dCTP-α-^32 P (Amersham Corp., Arlington Heights, Ill.) by random primer labeling, using the Prime-a-GeneLabeling System (Promega Corp., Madison, Wis.).
Analysis and quantification of mRNA: IDO mRNA was detected by Northern blot analysis (see Maniatis a, p. 7.39-7.51) using standard methods. […] Quantification of IDO mRNA was carried out using a phosphorimager (Molecular Dynamics) in which density (i.e., amount of RNA) is expressed as relative phosphorimager units. […] GAPD mRNA measurement by phosphorimager quantification of Northern blots serves as a means to normalize for potential sample to sample differences in the amount of total RNA loaded on gels. […]

The structures appear in SMILES notation.

In the case of `O=C1NCc2c1c1c(c3[nH]c4ccccc4c23)Cc2ccccc2-1` [Compound I-2], the “ChAT Activity (% of Control)” value in test [1] (100 nM) and in test [1] (1000 nM) was “inactive” in each case. Moreover, in test [1] (Rattus norvegicus, 120 h, 250 nM, read-out: ChAT Activity (% of Control)), the activity at 0.25 µM stood at 137%. Further, the activity at 0.5 µM in test [1] (Rattus norvegicus, 120 h, 500 nM, read-out: ChAT Activity (% of Control)) is 137%. Also, in test [2], the mrna remaining at 0.4 µM stood at 55%.
